In patent publication US4276890A, “Tobacco smoking inhibitor” (priority 1979, dated 1981):
Values after ≈ are worked out from the molar mass of the structure shown.

Assay: Solubility
Type: physicochemical
Procedure: The troches were made essentially by conventional candy making techniques. The polysaccharide and starch were first dry blended to substantial uniformity. About 3-4% by weight of water was added to the dry powder to form a thick paste. This paste was then heated to produce a uniform viscous melt. Maltol or ethyl maltol were added to this melt as saturated solutions in boiling water. The water solubility of the gamma pyrones is somewhat limited. For example, one gram of ethyl maltol requires 6 ml of water at 100° C. to dissolve completely. Since the water content of the mixture must be kept low, the amount of ethyl maltol which can be incorporated is about 3-4%, and preferably about 1% by weight of the troche. […] Alternatively, the entire process can be carried out in a suitable pressure apparatus.

## CCc1occc(=O)c1O [ethyl maltol, 3-hydroxy-2-ethyl-4-pyrone]
Compared with water
  solubility in alcoholic solution: somewhat more soluble
One gram, water at 100° C., read-out: water to dissolve one gram completely (converted)
  solubility: 167 mg/mL (≈ 1190 mM)
